Values belong to the compound of their own block, whether it stands above or below them.
Target: T1, recombinant autotaxin (Homo sapiens, UniProt Q13822)
T1 construct: made in house; host or cells: Hi5 insect cells (baculovirus)
Assay: Autotaxin test (enzyme test), Amplex Red fluorescence with LPC substrate
Format: biochemical
Conditions: autotaxin inhibition (enzyme test); for remaining activity at 10 µM: 10 μM compound, read-out: % Control at 10 μM
Outline: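 Purified recombinant autotaxin (baculovirus Hi5-expressed) pre-incubated with compound 30 min at 22° C, then LPC (final 75 μM) added and reacted 90 min at 37° C in Tris pH 8 buffer with CaCl2. Choline released was coupled via alkaline phosphatase, choline oxidase and peroxidase to Amplex Red; resorufin fluorescence read in kinetic mode (ex 485/em 612 nm).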

Compound: O=C([C@@H]1CCCN1C1CCNCC1)N1CCN2C(=O)c3cc(-c4ccc(Cl)cc4F)ccc3N(CCN3CCOCC3)C(=O)[C@H]2C1 [Compound A153]
remaining activity at 10 µM: 21% | IC50: > 1000 nM

Compound: CC(C)(C)CC(=O)N1CCN2C(=O)c3cc(-c4cc(Cl)cc(Cl)c4)ccc3NC(=O)C2C1 (stereo not drawn) [Compound A19, 7-(3,5-Dichlorophenyl)-2-(3,3-dimethylbutyryl)-1,3,4,11a-tetrahydro-2H,10H-2,4a,10-triaza-dibenzo[a,d]cycloheptene-5,11-dione]
remaining activity at 10 µM: 65% | IC50: > 1000 nM

Compound: O=C1Nc2ccc(-c3ccc(Cl)cc3)cc2C(=O)N2CCN(C(=O)[C@@H]3CCCCN3)CC12 (stereo partly drawn) [Compound A21, 7-(4-Chlorophenyl)-2-((S)-piperidine-2-carbonyl)-1,3,4,11a-tetrahydro-2H,10H-2,4a,10-triaza-dibenzo[a,d]cycloheptene-5,11-dione]
remaining activity at 10 µM: 82% | IC50: > 1000 nM

Compound: O=C(O)CCCC(=O)N1CCN2C(=O)c3cc(-c4ccco4)ccc3NC(=O)[C@H]2C1 [Compound B7]
remaining activity at 10 µM: 70%

Compound: CC(C)(C)CC(=O)N1CCN2C(=O)c3cc(-c4ccc(Cl)cc4F)ccc3N(CCN3CCOCC3)C(=O)C2C1 (stereo not drawn) [Compound A143]
remaining activity at 10 µM: 3% | IC50: 100 to 1000 nM

Compound: O=C1Nc2ccc(-c3ccco3)cc2C(=O)N2CCN(C(=O)CO)C[C@H]12 [Compound A6, (R)-7-Furan-2-yl-2-(2-hydroxyacetyl)-1,3,4,11a-tetrahydro-2H,10H-2,4a,10-triazadibenzo[a,d]-cycloheptene-5,11-dione]
remaining activity at 10 µM: 73%

Compound: COc1ccc(-c2ccc3c(c2)C(=O)N2CCN(C(=O)CC(C)(C)C)C[C@@H]2C(=O)N3)cc1 [Compound B25]
remaining activity at 10 µM: 47% | IC50: > 1000 nM

Compound: O=C1Nc2ccc(-c3ccc(Cl)cc3)cc2C(=O)N2CCN(C(=O)c3ccccc3)CC12 (stereo not drawn) [Compound B27]
remaining activity at 10 µM: 59% | IC50: > 1000 nM

Compound: CN(C)CCN1C(=O)C2CN(C(=O)CC(C)(C)C)CCN2C(=O)c2cc(-c3ccc(Cl)cc3)ccc21 (stereo not drawn) [Compound A134, 7-(4-Chlorophenyl)-10-(2-dimethylaminoethyl)-2-(3,3-dimethylbutyryl)-1,3,4,11a-tetrahydro-2H,10H-2,4a,10-triazadibenzo[a,d]cycloheptene-5,11-dione]
remaining activity at 10 µM: -19% | IC50: > 1000 nM

Compound: CC(C)(C)[C@H](NC1CCNCC1)C(=O)N1CCN[C@@H](C(=O)Nc2ccc(-c3ccc(Cl)cc3F)cc2C(=O)O)C1 [Compound 47, 4′-chloro-4-({(R)-4-[(S)-3,3-dimethyl-2-(piperidin-4-ylamino)-butyryl]piperazine-2-carbonyl}amino)-2′-fluorobiphenyl-3-carboxylic acid]
remaining activity at 10 µM: 8% | IC50: 100 to 1000 nM

Compound: O=C([C@@H]1CCCN1C1CCNCC1)N1CCN2C(=O)c3cc(-c4ccc(Cl)cc4F)ccc3N(CCC3CCNCC3)C(=O)[C@H]2C1 [Compound A158]
remaining activity at 10 µM: 21% | IC50: > 1000 nM

Compound: CC(C)(C)CC(=O)N1CCN2C(=O)c3cc(-c4ccc(Cl)cc4F)ccc3N(CC3CCNCC3)C(=O)C2C1 (stereo not drawn) [Compound A147]
remaining activity at 10 µM: 62% | IC50: > 1000 nM

Compound: COc1ccc(-c2ccc3c(c2)C(=O)N2CCN(C(=O)[C@@H]4CSCN4)C[C@@H]2C(=O)N3)cc1 [Compound B22]
remaining activity at 10 µM: 71%

Compound: O=C1Nc2ccc(-c3ccccc3)cc2C(=O)N2CCN(C(=O)C3CCCCC3)C[C@H]12 [Compound B13]
remaining activity at 10 µM: 53%

Compound: O=C1Nc2ccc(-c3ccc(Cl)cc3)cc2C(=O)N2CCN(C(=O)[C@@H](O)C3CCCCC3)CC12 (stereo partly drawn) [Compound A113, 7-(4-Chlorophenyl)-2-((S)-2-cyclohexyl-2-hydroxy-acetyl)-1,3,4,11a-tetrahydro-2H,10H-2,4a,10-triazadibenzo[a,d]cycloheptene-5,11-dione]
remaining activity at 10 µM: -6% | IC50: > 1000 nM

Compound: NC(=O)C(=O)N1CCN2C(=O)c3cc(-c4ccco4)ccc3NC(=O)[C@H]2C1 [Compound A4, 2-((R)-7-Furan-2-yl-5,11-dioxo-3,4,5,10,11,11a-hexahydro-1H-2,4a,10-triazadibenzo[a,d]cyclo-hepten-2-yl)-2-oxoacetamide]
remaining activity at 10 µM: 75%

Other lines, results leading:

remaining activity at 10 µM: 19% | IC50: 100 to 1000 nM
Compound: Cn1cc(CCC(=O)N2CCN3C(=O)c4cc(-c5ccc(Cl)cc5F)ccc4NC(=O)[C@H]3C2)cn1 [Compound A97, (R)-7-(4-Chloro-2-fluorophenyl)-2-[3-(1-methyl-1H-pyrazol-4-yl)propionyl]-1,3,4,11a-tetrahydro-2H,10H-2,4a,10-triazadibenzo[a,d]cycloheptene-5,11-dione]

remaining activity at 10 µM: 31% | IC50: > 1000 nM
Compound: CC(C)(C)[C@H](O)C(=O)N1CCN2C(=O)c3cc(-c4ccc(Cl)cc4F)ccc3NC(=O)[C@@H]2C1 [Compound A64, (S)-7-(4-Chloro-2-fluorophenyl)-2-((S)-2-hydroxy-3,3-dimethylbutyryl)-1,3,4,11a-tetrahydro-2H,10H-2,4a,10-triazadibenzo[a,d]cycloheptene-5,11-dione]

remaining activity at 10 µM: 76%
Compound: O=C1Nc2ccc(-c3ccccc3F)cc2C(=O)N2CCN(C(=O)c3cccs3)C[C@H]12 [Compound B23]

remaining activity at 10 µM: 78%
Compound: Cc1nc(C)c(C(=O)N2CCN3C(=O)c4cc(-c5ccc(Cl)cc5)ccc4NC(=O)C3C2)s1 (stereo not drawn) [Compound A73, 7-(4-Chlorophenyl)-2-(2,4-dimethylthiazole-5-carbonyl)-1,3,4,11a-tetrahydro-2H,10H-2,4a,10-triazadibenzo[a,d]cycloheptene-5,11-dione]

remaining activity at 10 µM: 11% | IC50: > 1000 nM
Compound: CC(C)[C@@H](O)C(=O)N1CCN2C(=O)c3cc(-c4ccc(Cl)cc4F)ccc3NC(=O)C2C1 (stereo partly drawn) [Compound A77, 7-(4-Chloro-2-fluorophenyl)-2-((R)-2-hydroxy-3-methylbutyryl)-1,3,4,11a-tetrahydro-2H,10H-2,4a,10-triazadibenzo[a,d]cycloheptene-5,11-dione]

remaining activity at 10 µM: 48% | IC50: > 1000 nM
Compound: O=C1Nc2ccc(-c3ccc(Cl)cc3F)cc2C(=O)N2CCN(C(=O)n3ccnc3)C[C@H]12 [Compound 41, (R)-7-(4-Chloro-2-fluorophenyl)-2-(imidazole-1-carbonyl)-1,3,4,11a-tetrahydro-2H,10H-2,4a,10-triazadibenzo[a,d]cycloheptene-5,11-dione]

remaining activity at 10 µM: 81%
Compound: CC(C)(C)CC(=O)N1CCN2C(=O)c3cc(-c4cc(C(F)(F)F)ccc4F)ccc3NC(=O)C2C1 (stereo not drawn) [Compound A83, 2-(3,3-Dimethylbutyryl)-7-(2-fluoro-5-trifluoromethyl-phenyl)-1,3,4,11a-tetrahydro-2H,10H-2,4a,10-triazadibenzo[a,d]cycloheptene-5,11-dione]

IC50: > 1000 nM
Compound: CC(C)(C)[C@@H](N)C(=O)N1CCN2C(=O)c3cc(-c4ccc(Cl)cc4)ccc3NC(=O)C2C1 (stereo partly drawn) [Compound A53, 2-((R)-2-Amino-3,3-dimethylbutyryl)-7-(4-chloro-phenyl)-1,3,4,11a-tetrahydro-2H,10H-2,4a,10-triazadibenzo[a,d]cycloheptene-5,11-dione]

remaining activity at 10 µM: 16% | IC50: > 1000 nM
Compound: CC(C)(C)CC(=O)N1CCN2C(=O)c3cc(-c4ccc(Cl)cc4Cl)ccc3NC(=O)C2C1 (stereo not drawn) [Compound A78, 7-(2,4-Dichlorophenyl)-2-(3,3-dimethylbutyryl)-1,3,4,11a-tetrahydro-2H,10H-2,4a,10-triaza-dibenzo[a,d]cycloheptene-5,11-dione]

remaining activity at 10 µM: 71%
Compound: O=C(O)CCC(=O)N1CCN2C(=O)c3cc(-c4ccc(Cl)cc4)ccc3NC(=O)[C@@H]2C1 [Compound B4]

remaining activity at 10 µM: -18% | IC50: > 1000 nM
Compound: CC(C)(C)[C@H](N)C(=O)N1CCN2C(=O)c3cc(-c4ccc(Cl)cc4)ccc3NC(=O)C2C1 (stereo partly drawn) [Compound A137, 2-((S)-2-Amino-3,3-dimethylbutyryl)-7-(4-chloro-phenyl)-1,3,4,11a-tetrahydro-2H,10H-2,4a,10-triazadibenzo[a,d]cycloheptene-5,11-dione]

remaining activity at 10 µM: 39% | IC50: > 1000 nM
Compound: COC[C@H](N)C(=O)N1CCN2C(=O)c3cc(-c4ccc(Cl)cc4F)ccc3NC(=O)[C@H]2C1 [Compound A124, (R)-2-((S)-2-Amino-3-methoxypropionyl)-7-(4-chloro-2-fluorophenyl)-1,3,4,11a-tetrahydro-2H,10H-2,4a,10-triazadibenzo[a,d]cycloheptene-5,11-dione]

remaining activity at 10 µM: -27% | IC50: 100 to 1000 nM
Compound: CC(C)(C)[C@H](O)C(=O)N1CCN2C(=O)c3cc(-c4ccc(Cl)cc4F)ccc3NC(=O)C2C1 (stereo partly drawn) [Compound A60, 7-(4-Chloro-2-fluorophenyl)-2-((S)-2-hydroxy-3,3-dimethylbutyryl)-1,3,4,11a-tetrahydro-2H,10H-2,4a,10-triazadibenzo[a,d]cycloheptene-5,11-dione]

remaining activity at 10 µM: 55%
Compound: O=C1Nc2ccc(-c3ccc(Cl)cc3)cc2C(=O)N2CCN(C(=O)c3cnc[nH]3)CC12 (stereo not drawn) [Compound A75, 7-(4-Chlorophenyl)-2-(3H-imidazole-4-carbonyl)-1,3,4,11a-tetrahydro-2H,10H-2,4a,10-triaza-dibenzo[a,d]cycloheptene-5,11-dione]

remaining activity at 10 µM: 61% | IC50: > 1000 nM
Compound: CS(=O)(=O)CC(=O)N1CCN2C(=O)c3cc(-c4ccc(Cl)cc4)ccc3NC(=O)C2C1 (stereo not drawn) [Compound A22, 7-(4-Chlorophenyl)-2-(2-methanesulfonylacetyl)-1,3,4,11a-tetrahydro-2H,10H-2,4a,10-triaza-dibenzo[a,d]cycloheptene-5,11-dione]

Source: patent US20120115852A1, “HETEROCYCLIC COMPOUNDS AS AUTOTAXIN INHIBITORS” (Merck Patent Gesellschaft Mit Beschrankter Haftung, priority 2009, published 2012)
